Laboratory results from BindingDB's records for doi:10.7270/Q2HM5725 (Burnham Center For Chemical Genomics, 2012).

What follows are compounds tested against Neuropilin-1 (Homo sapiens, UniProt O14786).
Neuropilin-1, sequence (O14786 whole entry): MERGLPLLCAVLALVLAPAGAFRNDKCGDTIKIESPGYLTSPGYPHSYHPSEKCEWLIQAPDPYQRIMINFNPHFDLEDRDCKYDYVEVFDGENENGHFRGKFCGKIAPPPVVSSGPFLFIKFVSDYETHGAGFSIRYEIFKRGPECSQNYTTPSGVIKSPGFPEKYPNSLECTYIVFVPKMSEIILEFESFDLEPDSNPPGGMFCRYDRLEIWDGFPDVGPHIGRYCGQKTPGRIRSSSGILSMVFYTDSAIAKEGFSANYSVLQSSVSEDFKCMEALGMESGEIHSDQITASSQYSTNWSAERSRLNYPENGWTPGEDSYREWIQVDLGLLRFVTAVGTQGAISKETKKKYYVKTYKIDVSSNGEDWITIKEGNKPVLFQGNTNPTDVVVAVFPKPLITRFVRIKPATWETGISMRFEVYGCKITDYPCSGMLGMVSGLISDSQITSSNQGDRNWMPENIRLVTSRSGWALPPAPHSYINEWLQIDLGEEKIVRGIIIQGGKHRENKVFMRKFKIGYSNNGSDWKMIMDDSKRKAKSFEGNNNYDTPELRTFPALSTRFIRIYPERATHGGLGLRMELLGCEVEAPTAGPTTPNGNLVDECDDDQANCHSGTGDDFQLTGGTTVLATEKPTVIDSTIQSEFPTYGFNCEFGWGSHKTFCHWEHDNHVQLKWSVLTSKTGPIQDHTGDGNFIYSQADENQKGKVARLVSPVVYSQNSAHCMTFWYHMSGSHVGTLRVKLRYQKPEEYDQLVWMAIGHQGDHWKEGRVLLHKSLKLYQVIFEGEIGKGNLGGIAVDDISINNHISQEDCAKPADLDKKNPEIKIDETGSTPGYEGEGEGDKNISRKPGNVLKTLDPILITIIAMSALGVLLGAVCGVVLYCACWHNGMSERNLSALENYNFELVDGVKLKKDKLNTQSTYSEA

SMILES	IC50
O=C(Cc1ncnc2c1ncn2C1OC(CO)C(O)C1O)c1ccccc1 (configuration not stated)	> 95 µM
Cc1ccc(N=CC(S(=O)(=O)c2ccccc2)S(=O)(=O)c2ccccc2)cc1	> 95 µM
COC(=O)C1=C(C)N=C(C)C(C(=O)OC)C1C(=O)OC(C)C(=O)c1ccccc1 (configuration not stated) [2,6-dimethyl-1,4-dihydropyridine-3,4,5-tricarboxylic acid O3,O5-dimethyl ester O4-(1-oxo-1-phenylpropan-2-yl) ester]	> 95 µM
C=CCN1C(=O)C2(c3ccccc3OC(=N)C2C(=O)OCC)c2c1c1ccccc1oc2=O (configuration not stated) [2-amino-2',4'-dioxo-1'-prop-2-enyl-3-spiro[1-benzopyran-4,3'-[1]benzopyrano[4,3-b]pyrrole]carboxylic acid ethyl ester]	> 95 µM
CCOc1ccc(-n2c(O)cc(N3CCN(c4ccc(Cl)cc4)CC3)c2O)cc1 [3-[4-(4-Chloro-phenyl)-piperazin-1-yl]-1-(4-ethoxy-phenyl)-pyrrolidine-2,5-dione]	> 95 µM
CCOC(=O)C1=C(C)N=C2CCCC(=O)C2C1c1cn(Cc2ccc(Cl)cc2Cl)nc1-c1ccccc1 (configuration not stated) [4-[1-[(2,4-dichlorophenyl)methyl]-3-phenyl-4-pyrazolyl]-2-methyl-5-oxo-4,6,7,8-tetrahydro-1H-quinoline-3-carboxylic acid ethyl ester]	> 95 µM
COc1ccc2c(c1)N(C)/C(=C1/S/C(=N\Cc3ccccc3)N(c3ccccc3)C1=O)S2 [(5Z)-5-(5-methoxy-3-methyl-1,3-benzothiazol-2-ylidene)-3-phenyl-2-(phenylmethyl)imino-1,3-thiazolidin-4-one]	> 95 µM
COc1cccc(N2[C@@H](CC(C)=O)c3ccc(C=CC(C)=O)cc3S2(=O)=O)c1 [(E)-4-[(3S)-2-(3-methoxyphenyl)-1,1-bis(oxidanylidene)-3-(2-oxidanylidenepropyl)-3H-1,2-benzothiazol-6-yl]but-3-en-2-one]	> 95 µM
C=CCOc1ccc(C2C(C(=O)c3c(C)[nH]c(C(=O)OC)c3C)C(=O)C(=O)N2CCN(C)C)cc1 (configuration not stated) [MLS000081294]	> 95 µM
Cn1cccc1C1Nc2ccccc2N=C2CC(C)(C)CC(=O)C21 (configuration not stated) [MLS000533228]	> 95 µM
CCC(NCCc1ccccc1)=C1C(=O)NC(=O)N(C2CCCCC2)C1=O [MLS000557927]	> 95 µM
Cc1ccc2c(c1)=C(c1ccncc1)NN=C(c1ccc(F)cc1)N=2 [MLS000692744]	> 95 µM
CCC1=C(OC(=O)N(CC)CC)N2C(=O)O/C(=N\CC(=O)OC)[C@]2(Cc2ccccc2)[C@H]2C1=CC[C@H]1C(=O)N(CC(=O)OC)C(=O)[C@H]12 [MLS000877797]	> 95 µM
CC(C)C1=NC(=O)NC2CCCCC12 (configuration not stated) [SMR000060291]	> 95 µM
Cc1cc2c(cc1C)NC(c1nc3ccccc3[nH]1)C1C(=O)CC(C)(C)CC1=N2 (configuration not stated) [SMR000120514]	> 95 µM
COc1ccc(-n2c(O)cc(SCCc3nc4ccccc4[nH]3)c2O)cc1 [SMR000200354]	> 95 µM
CC1(c2ccccc2)CC(C)(C)N2C(=O)/C(=C3/NC(=S)NC3=O)c3cccc1c32 (configuration not stated) [SMR000221518]	> 95 µM
Cc1ccc(CN=Nc2nc3ccccc3[nH]2)s1 [SMR000261490]	> 95 µM
CCC1=C(OC(=O)N(CC)CC)N2C(=O)O/C(=N\CC(=O)OC)[C@]2(C)[C@H]2C1=CC[C@H]1C(=O)N(CC)C(=O)[C@H]12 [SMR000440357]	> 95 µM
CCC1=C(OC(=O)N(CC)CC)N2C(=O)O/C(=N\CCOC)[C@]2(Cc2ccccc2)[C@H]2C1=CC[C@H]1C(=O)N(CC(=O)OC)C(=O)[C@H]12 [SMR000440375]	> 95 µM
CCC1=C(OC(=O)N(CC)CC)N2C(=O)O/C(=N\CC3CC3)[C@]2(Cc2ccccc2)[C@H]2C1=CC[C@H]1C(=O)N(C)C(=O)[C@H]12 [SMR000440396]	> 95 µM
CCOC(=O)C1C(=O)C(=O)N(c2ccccc2)C1c1cccc([N+](=O)[O-])c1 (configuration not stated) [ethyl 2-(3-nitrophenyl)-4-oxidanyl-5-oxidanylidene-1-phenyl-2H-pyrrole-3-carboxylate]	> 95 µM
